# Data reported in patent publication US20240251788A1, “HERBICIDE/SAFENER COMBINATION BASED ON SAFENERS FROM THE CLASS OF SUBSTITUTED [(1,5-DIPHENYL-1H-1,2,4-TRIAZOL-3-YL)OXY]ACETIC ACIDS AND THEIR SALTS” (Bayer Aktiengesellschaft, priority 2021, published 2024).
# Tests used:
# [1] = test system: summer wheat crop plant (TRZAS; cv. Triso); experiment: Reduction in herbicide damage to summer wheat by safener, greenhouse post-emergence application, visual scoring; type: in vivo; set-up: key to Reduction in the damage by safener (difference): difference in % visual damage (0-100% scale vs untreated) due to safener
# Description: (§1) The seeds of the crop plants to be treated are laid out in soil in woodfiber pots (diameter ˜ 7 cm), covered with soil and grown in a greenhouse under good conditions for germination and growth. The trial plants were treated at the early leaf stage (BBCH10-BBCH12).
# The herbicides used (component B) were used in the following formulations: • B2.81: WP • B2.85: WP • B2.92: WP • Cinmethylin: EC • Clomazone: WP • Ethofumesate: WP • Flufenacet: SC • Pinoxaden: WP • Saflufenacil: WP • Bicyclopyrone: WP • Picloram: WP • Metazachlor: SC • Flumioxazin: WP • Glyphosate potassium salt: SL • Topramezone: WP
# (§2) The dose of the respective herbicides was chosen here such that it causes an average degree of visually apparent damage (min. 20%, max. 75%) compared to untreated crop plants at the evaluation time on a control group of crop plants without safener treatment that were included in the same trial.
# (§3) In the respective herbicide/safener combinations, the safeners (component A) in the form of wettable powders (WP) were added in the dose specified; in these cases, herbicide and safener are thus applied as a mixture.
# (§4) Application was effected in each case on to the above-ground parts of the plant, at a water application rate corresponding to 300 l/ha and with addition of wetting agent (Mero, 1.5 l/h a).
# In the applications that contained pinoxaden, bicyclopyrone or topramezone, the herbicidal effect was enhanced by additionally adding ammonium sulfate (2 kg/ha).
# (§5) After application, the plants were cultivated under good growth conditions in a greenhouse. On account of the different mechanisms of action of the herbicides used, the damaging effect of the herbicides was fully manifested at different times depending on the herbicide, and this in turn forms the basis for assessment of the safener action in the mixtures. Therefore, the damage was scored visually, depending on the herbicide/mixture, between 11 and 21 days after application.
# (§6) The damage effect was assessed visually on a scale of 0-100% by comparison with untreated control plants, and averaged over 2 repeats per treatment.
# [2] = test system: summer barley crop plant (HORVS: cv. Quench); experiment: Reduction in herbicide damage to summer barley by safener, greenhouse post-emergence application, visual scoring; type: in vivo; set-up: key to Reduction in the damage by safener (difference): difference in % visual damage, 0-100% scale vs untreated plants
# Description: as §1
# The herbicides used (component B) were used in the following formulations: • B2.81: WP • B2.85: WP • B2.92: WP • Clomazone: WP • Ethofumesate: WP • Flufenacet: SC • Fluroxypyr: EC • Saflufenacil: WP • Thiencarbazone-methyl: WP • Iodosulfuron-methyl-sodium: WP • Bifenox: WP • Glyphosate potassium salt: SL • Topramezone: WP
# as §2, §3, §4
# In the applications that contained pinoxaden or topramezone, the herbicidal effect was enhanced by additionally adding ammonium sulfate (2 kg/ha).
# as §5, §6
# [3] = summer barley (HORVS), herbicide B2.68 (thiencarbazone-methyl) 30 g a.i./ha + safener 100 g a.i./ha
# [4] = summer barley (HORVS), herbicide B2.81 15 g a.i./ha + safener 100 g a.i./ha
# [5] = summer barley (HORVS), herbicide B2.85 5 g a.i./ha + safener 100 g a.i./ha
# [6] = summer barley (HORVS), herbicide B2.92 5 g a.i./ha + safener 100 g a.i./ha
# [7] = summer barley (HORVS), herbicide B5.14 (clomazone) 200 g a.i./ha + safener 100 g a.i./ha
# [8] = summer barley (HORVS), herbicide B5.21 (ethofumesate) 2000 g a.i./ha + safener 100 g a.i./ha
# [9] = summer barley (HORVS), herbicide B6.4 (fluroxypyr) 500 g a.i./ha + safener 100 g a.i./ha
# [10] = summer barley (HORVS), herbicide B9.10 (saflufenacil) 20 g a.i./ha + safener 100 g a.i./ha
# [11] = summer wheat (TRZAS), herbicide B1.8 (pinoxaden) 200 g a.i./ha + safener 100 g a.i./ha
# [12] = summer wheat (TRZAS), herbicide B2.81 15 g a.i./ha + safener 100 g a.i./ha
# [13] = summer wheat (TRZAS), herbicide B2.85 5 g a.i./ha + safener 100 g a.i./ha
# [14] = summer wheat (TRZAS), herbicide B2.92 5 g a.i./ha + safener 100 g a.i./ha
# [15] = summer wheat (TRZAS), herbicide B5.14 (clomazone) 200 g a.i./ha + safener 100 g a.i./ha
# [16] = summer wheat (TRZAS), herbicide B5.21 (ethofumesate) 2000 g a.i./ha + safener 100 g a.i./ha
# [17] = summer wheat (TRZAS), herbicide B9.10 (saflufenacil) 10 g a.i./ha + safener 100 g a.i./ha
# [18] = summer wheat (TRZAS), herbicide B9.10 (saflufenacil) 20 g a.i./ha + safener 100 g a.i./ha
# [19] = summer wheat (TRZAS), herbicide dose 400 g a.i./ha, without safener
compound,measurement,setting,value
"Cc1ccccc1CO[C@@H]1C[C@@]2(C(C)C)CC[C@]1(C)O2 (racemic) [Compound B5.13, cinmethylin, reference compound]",Damage to the plant by the herbicide (in %),"[1]; summer wheat (TRZAS), herbicide dose 500 g a.i./ha, without safener",25%
same,Damage to the plant by the herbicide (in %),"[1]; summer wheat (TRZAS), herbicide dose 1000 g a.i./ha, without safener",25%
"C=C[C@]1(C(=O)N[C@H]2CO[C@@H](C(=O)OC)C2)CC(c2cc(F)cc(F)c2)=NO1 (relative stereo) [Compound B2.81, methyl (2R*,4R*)-4-[[(5S)-3-(3,5-difluorophenyl)-5-vinyl-4H-isoxazole-5-carbonyl]amino]tetrahydrofuran-2-carboxylate]",Damage to the plant by the herbicide (in %),[2]; in vivo,70%
same,Damage to the plant by the herbicide (in %),[1]; in vivo,70%
"COC(=O)COc1nc(-c2ccc(Cl)cc2F)n(-c2ccc(Cl)cc2F)n1 [Compound A1, methyl {[1,5-bis(4-chloro-2-fluorophenyl)-1H-1,2,4-triazol-3-yl]oxy}acetate]",Reduction in the damage by safener (difference),[2]; [3],30
same,Reduction in the damage by safener (in %),[2]; [3],100%
same,Reduction in the damage by safener (difference),[2]; [4],70
same,Reduction in the damage by safener (in %),[2]; [4],100%
same,Reduction in the damage by safener (difference),[2]; [5],50
same,Reduction in the damage by safener (in %),[2]; [5],83%
same,Reduction in the damage by safener (difference),[2]; [6],65
same,Reduction in the damage by safener (in %),[2]; [6],100%
same,Reduction in the damage by safener (difference),[2]; [7],30
same,Reduction in the damage by safener (in %),[2]; [7],75%
same,Reduction in the damage by safener (difference),[2]; [8],60
same,Reduction in the damage by safener (in %),[2]; [8],100%
same,Reduction in the damage by safener (difference),[2]; [9],20
same,Reduction in the damage by safener (in %),[2]; [9],100%
same,Reduction in the damage by safener (difference),[2]; [10],20
same,Reduction in the damage by safener (in %),[2]; [10],50%
same,Reduction in the damage by safener (difference),[1]; [11],25
same,Reduction in the damage by safener (in %),[1]; [11],71%
same,Reduction in the damage by safener (difference),[1]; [12],70
same,Reduction in the damage by safener (in %),[1]; [12],100%
same,Reduction in the damage by safener (difference),[1]; [13],60
same,Reduction in the damage by safener (in %),[1]; [13],100%
same,Reduction in the damage by safener (difference),[1]; [14],60
same,Reduction in the damage by safener (in %),[1]; [14],100%
same,Reduction in the damage by safener (difference),[1]; [15],20
same,Reduction in the damage by safener (in %),[1]; [15],50%
same,Reduction in the damage by safener (difference),[1]; [16],70
same,Reduction in the damage by safener (in %),[1]; [16],100%
same,Reduction in the damage by safener (difference),[1]; [17],15
same,Reduction in the damage by safener (in %),[1]; [17],43%
same,Reduction in the damage by safener (difference),[1]; [18],15
same,Reduction in the damage by safener (in %),[1]; [18],38%
"CCc1cc(C)cc(CC)c1-c1c(OC(=O)C(C)(C)C)n2n(c1=O)CCOCC2 [Compound B1.8, pinoxaden, reference compound]",Damage to the plant by the herbicide (in %),"[1]; summer wheat (TRZAS), herbicide dose 200 g a.i./ha, without safener",35%
"COc1nc(C)nc(NC(=O)NS(=O)(=O)c2cc(I)ccc2C(=O)O)n1 [Compound B2.34, iodosulfuron, reference compound]",Damage to the plant by the herbicide (in %),[2]; in vivo,45%
"Cc1cccc(C)c1N(Cn1cccn1)C(=O)CCl [Compound B2.38, metazachlor, reference compound]",Damage to the plant by the herbicide (in %),"[1]; summer wheat (TRZAS), herbicide dose 4000 g a.i./ha, without safener",40%
"COc1nn(C(=O)NS(=O)(=O)c2c(C(=O)O)csc2C)c(=O)n1C [Compound B2.68, thiencarbazone, reference compound]",Damage to the plant by the herbicide (in %),"[2]; summer barley (HORVS), herbicide dose 30 g a.i./ha, without safener",30%
"C#CCN1C(=O)COc2cc(F)c(N3C(=O)C4=C(CCCC4)C3=O)cc21 [Compound B5.26, flumioxazin, reference compound]",Damage to the plant by the herbicide (in %),"[1]; summer wheat (TRZAS), herbicide dose 20 g a.i./ha, without safener",60%
"Nc1c(Cl)c(F)nc(OCC(=O)O)c1Cl [Compound B6.4, fluroxypyr, reference compound]",Damage to the plant by the herbicide (in %),[2]; in vivo,20%
"Nc1c(Cl)c(Cl)nc(C(=O)O)c1Cl [Compound B6.5, picloram, reference compound]",Damage to the plant by the herbicide (in %),[1]; [19],25%
"COC(=O)c1cc(Oc2ccc(Cl)cc2Cl)ccc1[N+](=O)[O-] [Compound B8.6, bifenox, reference compound]",Damage to the plant by the herbicide (in %),"[2]; summer barley (HORVS), herbicide dose 600 g a.i./ha, without safener",40%
"bicyclopyrone [Compound B1.2, reference compound]",Damage to the plant by the herbicide (in %),[1]; [19],60%
